This data set is described as follows: Cytotoxicity in pre-osteoblasts (unknown origin) assessed as cell death upto 5 uM by CCK8 assay. As to conditions: pre-osteoblast. Format: toxicity, cell-based. On the technique in general: Tetrazolium assays rely on reduction of a dye to a coloured formazan, in cell work by metabolically active cells.

On to `CC[C@H](C)[C@H](NC(=O)[C@H](CCC(=O)O)NC(=O)[C@H](C)NC(=O)[C@@H](NC(=O)[C@H](CO)NC(C)=O)C(C)C)C(=O)N[C@@H](CCC(N)=O)C(=O)N[C@@H](CC(C)C)C(=O)N[C@@H](CCSC)C(=O)N[C@@H](Cc1cnc[nH]1)C(=O)N[C@@H](CC(N)=O)C(=O)N[C@@H](CC(C)C)C(=O)NCC(=O)N[C@@H](CCCCN)C(=O)N[C@@H](Cc1cnc[nH]1)C(=O)N[C@@H](CC(C)C)C(=O)N[C@@H](CC(N)=O)C(=O)N[C@@H](CO)C(=O)N[C@@H](CCSC)C(=O)N[C@@H](CCC(=O)O)C(=O)N[C@@H](CCCNC(=N)N)C(=O)N[C@H](C(=O)N[C@@H](CCC(=O)O)C(=O)N[C@@H](Cc1c[nH]c2ccccc12)C(=O)N[C@@H](CC(C)C)C(=O)N[C@@H](CCCNC(=N)N)C(=O)N[C@@H](CCCCN)C(=O)N[C@@H](CCCCN)C(=O)N[C@@H](CC(C)C)C(=O)N[C@@H](CCC(N)=O)C(=O)N[C@@H](CC(=O)O)C(=O)N[C@H](C(=O)N[C@@H](Cc1cnc[nH]1)C(=O)N[C@@H](CC(N)=O)C(=O)N[C@@H](Cc1ccccc1)C(N)=O)C(C)C)C(C)C`, for which the Activity result is recorded as “Non-Toxic”.

For `CC[C@H](C)[C@H](NC(=O)[C@H](CCC(=O)O)NC(=O)[C@H](CO)NC(=O)[C@@H](NC(=O)[C@H](CO)NC(C)=O)C(C)C)C(=O)N[C@@H](CCC(N)=O)C(=O)N[C@@H](CC(C)C)C(=O)N[C@@H](CCSC)C(=O)N[C@@H](Cc1cnc[nH]1)C(=O)N[C@@H](CC(N)=O)C(=O)N[C@@H](CC(C)C)C(=O)NCC(=O)N[C@@H](CCCCN)C(=O)N[C@@H](Cc1cnc[nH]1)C(=O)N[C@@H](CC(C)C)C(=O)N[C@@H](CC(N)=O)C(=O)N[C@@H](CO)C(=O)N[C@@H](CCSC)C(=O)N[C@@H](CCC(=O)O)C(=O)N[C@@H](CCCNC(=N)N)C(=O)N[C@H](C(=O)N[C@@H](CCC(=O)O)C(=O)N[C@@H](Cc1c[nH]c2ccccc12)C(=O)N[C@@H](CC(C)C)C(=O)N[C@@H](CCCNC(=N)N)C(=O)N[C@@H](CCCCN)C(=O)N[C@@H](CCCCN)C(=O)N[C@@H](CC(C)C)C(=O)N[C@@H](CCC(N)=O)C(=O)N[C@@H](CC(=O)O)C(=O)N[C@H](C(=O)N[C@@H](C)C(=O)N[C@@H](CC(N)=O)C(=O)N[C@@H](Cc1ccccc1)C(N)=O)C(C)C)C(C)C`, the Activity result was “Non-Toxic”.

As to `CC[C@H](C)[C@H](NC(=O)[C@H](CCC(=O)O)NC(=O)[C@H](CO)NC(=O)[C@@H](NC(=O)[C@H](CO)NC(C)=O)C(C)C)C(=O)N[C@@H](CCC(N)=O)C(=O)N[C@@H](CC(C)C)C(=O)N[C@@H](CCSC)C(=O)N[C@@H](Cc1cnc[nH]1)C(=O)N[C@@H](CC(N)=O)C(=O)N[C@@H](CC(C)C)C(=O)NCC(=O)N[C@@H](CCCCN)C(=O)N[C@@H](Cc1cnc[nH]1)C(=O)N[C@@H](CC(C)C)C(=O)N[C@@H](CC(N)=O)C(=O)N[C@@H](C)C(=O)N[C@@H](CCSC)C(=O)N[C@@H](CCC(=O)O)C(=O)N[C@@H](CCCNC(=N)N)C(=O)N[C@H](C(=O)N[C@@H](CCC(=O)O)C(=O)N[C@@H](Cc1c[nH]c2ccccc12)C(=O)N[C@@H](CC(C)C)C(=O)N[C@@H](CCCNC(=N)N)C(=O)N[C@@H](CCCCN)C(=O)N[C@@H](CCCCN)C(=O)N[C@@H](CC(C)C)C(=O)N[C@@H](CCC(N)=O)C(=O)N[C@@H](CC(=O)O)C(=O)N[C@H](C(=O)N[C@@H](Cc1cnc[nH]1)C(=O)N[C@@H](CC(N)=O)C(=O)N[C@@H](Cc1ccccc1)C(N)=O)C(C)C)C(C)C`, the Activity entry was “Non-Toxic”.

`CC[C@H](C)[C@H](NC(=O)[C@H](CCC(=O)O)NC(=O)[C@H](CO)NC(=O)[C@@H](NC(=O)[C@H](CO)NC(C)=O)C(C)C)C(=O)N[C@@H](C)C(=O)N[C@@H](CC(C)C)C(=O)N[C@@H](CCSC)C(=O)N[C@@H](Cc1cnc[nH]1)C(=O)N[C@@H](CC(N)=O)C(=O)N[C@@H](CC(C)C)C(=O)NCC(=O)N[C@@H](CCCCN)C(=O)N[C@@H](Cc1cnc[nH]1)C(=O)N[C@@H](CC(C)C)C(=O)N[C@@H](CC(N)=O)C(=O)N[C@@H](CO)C(=O)N[C@@H](CCSC)C(=O)N[C@@H](CCC(=O)O)C(=O)N[C@@H](CCCNC(=N)N)C(=O)N[C@H](C(=O)N[C@@H](CCC(=O)O)C(=O)N[C@@H](Cc1c[nH]c2ccccc12)C(=O)N[C@@H](CC(C)C)C(=O)N[C@@H](CCCNC(=N)N)C(=O)N[C@@H](CCCCN)C(=O)N[C@@H](CCCCN)C(=O)N[C@@H](CC(C)C)C(=O)N[C@@H](CCC(N)=O)C(=O)N[C@@H](CC(=O)O)C(=O)N[C@H](C(=O)N[C@@H](Cc1cnc[nH]1)C(=O)N[C@@H](CC(N)=O)C(=O)N[C@@H](Cc1ccccc1)C(N)=O)C(C)C)C(C)C`: the Activity entry is “Non-Toxic”.

For `CC[C@H](C)[C@H](NC(=O)[C@H](CCC(=O)O)NC(=O)[C@H](CO)NC(=O)[C@@H](NC(=O)[C@H](CO)NC(C)=O)C(C)C)C(=O)N[C@@H](CCC(N)=O)C(=O)N[C@@H](CC(C)C)C(=O)N[C@@H](CCSC)C(=O)N[C@@H](Cc1cnc[nH]1)C(=O)N[C@@H](CC(N)=O)C(=O)N[C@@H](CC(C)C)C(=O)NCC(=O)N[C@@H](CCCCN)C(=O)N[C@@H](Cc1cnc[nH]1)C(=O)N[C@@H](CC(C)C)C(=O)N[C@@H](CC(N)=O)C(=O)N[C@@H](CO)C(=O)N[C@@H](CCSC)C(=O)N[C@@H](CCC(=O)O)C(=O)N[C@@H](CCCNC(=N)N)C(=O)N[C@H](C(=O)N[C@@H](CCC(=O)O)C(=O)N[C@@H](C)C(=O)N[C@@H](CC(C)C)C(=O)N[C@@H](CCCNC(=N)N)C(=O)N[C@@H](CCCCN)C(=O)N[C@@H](CCCCN)C(=O)N[C@@H](CC(C)C)C(=O)N[C@@H](CCC(N)=O)C(=O)N[C@@H](CC(=O)O)C(=O)N[C@H](C(=O)N[C@@H](Cc1cnc[nH]1)C(=O)N[C@@H](CC(N)=O)C(=O)N[C@@H](Cc1ccccc1)C(N)=O)C(C)C)C(C)C`, the Activity result is listed as “Non-Toxic”.

For `CC[C@H](C)[C@H](NC(=O)[C@H](CCC(=O)O)NC(=O)[C@H](CO)NC(=O)[C@@H](NC(=O)[C@H](CO)NC(C)=O)C(C)C)C(=O)N[C@@H](CCC(N)=O)C(=O)N[C@@H](CC(C)C)C(=O)N[C@@H](CCSC)C(=O)N[C@@H](Cc1cnc[nH]1)C(=O)N[C@@H](CC(N)=O)C(=O)N[C@@H](C)C(=O)NCC(=O)N[C@@H](CCCCN)C(=O)N[C@@H](Cc1cnc[nH]1)C(=O)N[C@@H](CC(C)C)C(=O)N[C@@H](CC(N)=O)C(=O)N[C@@H](CO)C(=O)N[C@@H](CCSC)C(=O)N[C@@H](CCC(=O)O)C(=O)N[C@@H](CCCNC(=N)N)C(=O)N[C@H](C(=O)N[C@@H](CCC(=O)O)C(=O)N[C@@H](Cc1c[nH]c2ccccc12)C(=O)N[C@@H](CC(C)C)C(=O)N[C@@H](CCCNC(=N)N)C(=O)N[C@@H](CCCCN)C(=O)N[C@@H](CCCCN)C(=O)N[C@@H](CC(C)C)C(=O)N[C@@H](CCC(N)=O)C(=O)N[C@@H](CC(=O)O)C(=O)N[C@H](C(=O)N[C@@H](Cc1cnc[nH]1)C(=O)N[C@@H](CC(N)=O)C(=O)N[C@@H](Cc1ccccc1)C(N)=O)C(C)C)C(C)C`, the Activity entry is reported as “Non-Toxic”.

In the case of `CC[C@H](C)[C@H](NC(=O)[C@H](CCC(=O)O)NC(=O)[C@H](CO)NC(=O)[C@@H](NC(=O)[C@H](CO)NC(C)=O)C(C)C)C(=O)N[C@@H](CCC(N)=O)C(=O)N[C@@H](CC(C)C)C(=O)N[C@@H](CCSC)C(=O)N[C@@H](Cc1cnc[nH]1)C(=O)N[C@@H](CC(N)=O)C(=O)N[C@@H](CC(C)C)C(=O)NCC(=O)N[C@@H](CCCCN)C(=O)N[C@@H](Cc1cnc[nH]1)C(=O)N[C@@H](CC(C)C)C(=O)N[C@@H](CC(N)=O)C(=O)N[C@@H](CO)C(=O)N[C@@H](CCSC)C(=O)N[C@@H](CCC(=O)O)C(=O)N[C@@H](CCCNC(=N)N)C(=O)N[C@H](C(=O)N[C@@H](CCC(=O)O)C(=O)N[C@@H](Cc1c[nH]c2ccccc12)C(=O)N[C@@H](CC(C)C)C(=O)N[C@@H](CCCNC(=N)N)C(=O)N[C@@H](CCCCN)C(=O)N[C@@H](C)C(=O)N[C@@H](CC(C)C)C(=O)N[C@@H](CCC(N)=O)C(=O)N[C@@H](CC(=O)O)C(=O)N[C@H](C(=O)N[C@@H](Cc1cnc[nH]1)C(=O)N[C@@H](CC(N)=O)C(=O)N[C@@H](Cc1ccccc1)C(N)=O)C(C)C)C(C)C`, the Activity entry is listed as “Non-Toxic”.

Turning to `CC[C@H](C)[C@H](NC(=O)[C@H](CCC(=O)O)NC(=O)[C@H](CO)NC(=O)[C@@H](NC(=O)[C@H](CO)NC(C)=O)C(C)C)C(=O)N[C@@H](CCC(N)=O)C(=O)N[C@@H](CC(C)C)C(=O)N[C@@H](CCSC)C(=O)N[C@@H](Cc1cnc[nH]1)C(=O)N[C@@H](CC(N)=O)C(=O)N[C@@H](CC(C)C)C(=O)NCC(=O)N[C@@H](CCCCN)C(=O)N[C@@H](Cc1cnc[nH]1)C(=O)N[C@@H](CC(C)C)C(=O)N[C@@H](C)C(=O)N[C@@H](CO)C(=O)N[C@@H](CCSC)C(=O)N[C@@H](CCC(=O)O)C(=O)N[C@@H](CCCNC(=N)N)C(=O)N[C@H](C(=O)N[C@@H](CCC(=O)O)C(=O)N[C@@H](Cc1c[nH]c2ccccc12)C(=O)N[C@@H](CC(C)C)C(=O)N[C@@H](CCCNC(=N)N)C(=O)N[C@@H](CCCCN)C(=O)N[C@@H](CCCCN)C(=O)N[C@@H](CC(C)C)C(=O)N[C@@H](CCC(N)=O)C(=O)N[C@@H](CC(=O)O)C(=O)N[C@H](C(=O)N[C@@H](Cc1cnc[nH]1)C(=O)N[C@@H](CC(N)=O)C(=O)N[C@@H](Cc1ccccc1)C(N)=O)C(C)C)C(C)C`, the Activity entry is recorded as “Non-Toxic”.

Take `CC[C@H](C)[C@H](NC(=O)[C@H](CCC(=O)O)NC(=O)[C@H](CO)NC(=O)[C@@H](NC(=O)[C@H](CO)NC(C)=O)C(C)C)C(=O)N[C@@H](CCC(N)=O)C(=O)N[C@@H](CC(C)C)C(=O)N[C@@H](CCSC)C(=O)N[C@@H](Cc1cnc[nH]1)C(=O)N[C@@H](CC(N)=O)C(=O)N[C@@H](CC(C)C)C(=O)NCC(=O)N[C@@H](CCCCN)C(=O)N[C@@H](Cc1cnc[nH]1)C(=O)N[C@@H](CC(C)C)C(=O)N[C@@H](CC(N)=O)C(=O)N[C@@H](CO)C(=O)N[C@@H](CCSC)C(=O)N[C@@H](CCC(=O)O)C(=O)N[C@@H](CCCNC(=N)N)C(=O)N[C@H](C(=O)N[C@@H](CCC(=O)O)C(=O)N[C@@H](Cc1c[nH]c2ccccc12)C(=O)N[C@@H](CC(C)C)C(=O)N[C@@H](CCCNC(=N)N)C(=O)N[C@@H](C)C(=O)N[C@@H](CCCCN)C(=O)N[C@@H](CC(C)C)C(=O)N[C@@H](CCC(N)=O)C(=O)N[C@@H](CC(=O)O)C(=O)N[C@H](C(=O)N[C@@H](Cc1cnc[nH]1)C(=O)N[C@@H](CC(N)=O)C(=O)N[C@@H](Cc1ccccc1)C(N)=O)C(C)C)C(C)C`: the Activity result is reported as “Non-Toxic”.
